These results are taken from BindingDB's records for doi:10.1016/j.ejmech.2017.08.046 (University of Torino, 2017).

Structures are written as SMILES. pIC50: −log10 of the molar value. Some results are limits rather than exact numbers.

Chain of Prostaglandin G/H synthase 2 (Homo sapiens) (P35354 whole entry, looked up): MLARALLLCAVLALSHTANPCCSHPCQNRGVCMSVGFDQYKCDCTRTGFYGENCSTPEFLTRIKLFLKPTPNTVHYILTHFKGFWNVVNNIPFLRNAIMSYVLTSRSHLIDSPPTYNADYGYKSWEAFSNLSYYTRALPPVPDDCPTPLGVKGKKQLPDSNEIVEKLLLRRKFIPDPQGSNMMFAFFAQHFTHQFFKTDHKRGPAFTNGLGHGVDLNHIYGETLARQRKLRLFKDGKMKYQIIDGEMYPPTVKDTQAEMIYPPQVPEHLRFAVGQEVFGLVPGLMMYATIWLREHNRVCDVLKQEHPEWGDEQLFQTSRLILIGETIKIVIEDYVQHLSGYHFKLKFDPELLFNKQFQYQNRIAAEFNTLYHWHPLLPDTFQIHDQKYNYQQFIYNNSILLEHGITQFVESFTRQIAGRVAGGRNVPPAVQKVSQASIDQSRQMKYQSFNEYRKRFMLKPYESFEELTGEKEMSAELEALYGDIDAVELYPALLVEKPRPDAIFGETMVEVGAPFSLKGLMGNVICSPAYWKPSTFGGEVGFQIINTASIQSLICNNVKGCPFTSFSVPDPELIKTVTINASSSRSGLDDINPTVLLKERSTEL

The assay addresses Prostaglandin G/H synthase 2 (Homo sapiens) (UniProt P35354). As to the kind of experiment: Inhibition of human COX2 assessed as reduction in PGF2alpha production by ELISA. A general note: ELISA stands for enzyme-linked immunosorbent assay.
For the compound `COc1ccc(Cn2nnc(O)c2C(=O)Nc2cccc(C(F)(F)F)c2)cc1`, the negative logarithm of the IC50 (pIC50) (in general, the IC50 on a negative log10 scale, so that one unit is a factor of ten) was less than 4.00.
For `O=C(Nc1cccc(C(F)(F)F)c1)c1c(O)nnn1Cc1ccccc1`, the pIC50 was less than 4.00.
The result for `O=C(Nc1cccc(C(F)(F)F)c1)c1c(O)nnn1CC1CC1` reads less than 4.00.
